Experimental data published in ChEMBL document CHEMBL4673401 (ACS Med Chem Lett, 2021).
Blank lines part the entries; values can stand above or below the compound they belong to.

Tests used:
[1] = Clearance in Sprague-Dawley rat at 3 mg/kg, po measured up to 24 hrs; assay type: ADME, organism-based; settings: in vivo
Cytochrome P450 2D6 = Cytochrome P450 2D6 (Homo sapiens, UniProt P10635); assay: Inhibition of CYP2D6 in human liver microsomes using dextromethorphan as substrate incubated for 10 mins in presence of NADPH by UHPLC-MS/MS analysis; assay type: ADME
Sequence of Cytochrome P450 2D6 (P10635 whole entry): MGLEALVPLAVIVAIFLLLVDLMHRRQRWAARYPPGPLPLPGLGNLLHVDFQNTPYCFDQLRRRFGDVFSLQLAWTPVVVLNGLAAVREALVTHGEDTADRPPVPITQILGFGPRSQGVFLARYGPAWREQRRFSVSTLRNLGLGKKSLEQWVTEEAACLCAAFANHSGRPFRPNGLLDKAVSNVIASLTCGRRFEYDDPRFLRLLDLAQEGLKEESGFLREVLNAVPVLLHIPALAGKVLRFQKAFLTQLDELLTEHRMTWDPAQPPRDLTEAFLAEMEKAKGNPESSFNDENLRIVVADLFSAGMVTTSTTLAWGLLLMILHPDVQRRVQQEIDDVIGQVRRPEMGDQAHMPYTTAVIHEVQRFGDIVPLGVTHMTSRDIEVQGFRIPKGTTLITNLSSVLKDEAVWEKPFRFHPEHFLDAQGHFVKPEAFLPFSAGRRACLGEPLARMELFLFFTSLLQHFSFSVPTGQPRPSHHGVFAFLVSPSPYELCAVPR

[2] = Protein binding in human plasma by rapid equilibrium dialysis method; assay type: ADME, cell-free; settings: read-out: PPB (converted)
MC-38 [3] = assay: Antitumor activity against mouse MC38 cells xenografted in humanized PD-1 mouse assessed as tumor growth inhibition at 100 mg/kg, po bid for 14 days in combination with PD-1 antibody at 3 mg/kg, ip qod for 8 days by digital caliper method relative to control; assay type: functional; settings: MC-38, 336 h, time 14 day, read-out: TGI
[4] = Protein binding in dog plasma by rapid equilibrium dialysis method; assay type: ADME, cell-free, Canis lupus familiaris; settings: read-out: PPB (converted)
[5] = Half life in C57BL/6 mouse at 3 mg/kg, po measured up to 24 hrs; assay type: ADME, organism-based; settings: in vivo
[6] = target: Voltage-gated inwardly rectifying potassium channel KCNH2 (Homo sapiens, UniProt Q12809); assay: Inhibition of human ERG expressed in CHO-K1 cells at -90 mV holding potential by automated patch-clamp method; assay type: cell-based
Sequence of Voltage-gated inwardly rectifying potassium channel KCNH2 (Q12809 whole entry): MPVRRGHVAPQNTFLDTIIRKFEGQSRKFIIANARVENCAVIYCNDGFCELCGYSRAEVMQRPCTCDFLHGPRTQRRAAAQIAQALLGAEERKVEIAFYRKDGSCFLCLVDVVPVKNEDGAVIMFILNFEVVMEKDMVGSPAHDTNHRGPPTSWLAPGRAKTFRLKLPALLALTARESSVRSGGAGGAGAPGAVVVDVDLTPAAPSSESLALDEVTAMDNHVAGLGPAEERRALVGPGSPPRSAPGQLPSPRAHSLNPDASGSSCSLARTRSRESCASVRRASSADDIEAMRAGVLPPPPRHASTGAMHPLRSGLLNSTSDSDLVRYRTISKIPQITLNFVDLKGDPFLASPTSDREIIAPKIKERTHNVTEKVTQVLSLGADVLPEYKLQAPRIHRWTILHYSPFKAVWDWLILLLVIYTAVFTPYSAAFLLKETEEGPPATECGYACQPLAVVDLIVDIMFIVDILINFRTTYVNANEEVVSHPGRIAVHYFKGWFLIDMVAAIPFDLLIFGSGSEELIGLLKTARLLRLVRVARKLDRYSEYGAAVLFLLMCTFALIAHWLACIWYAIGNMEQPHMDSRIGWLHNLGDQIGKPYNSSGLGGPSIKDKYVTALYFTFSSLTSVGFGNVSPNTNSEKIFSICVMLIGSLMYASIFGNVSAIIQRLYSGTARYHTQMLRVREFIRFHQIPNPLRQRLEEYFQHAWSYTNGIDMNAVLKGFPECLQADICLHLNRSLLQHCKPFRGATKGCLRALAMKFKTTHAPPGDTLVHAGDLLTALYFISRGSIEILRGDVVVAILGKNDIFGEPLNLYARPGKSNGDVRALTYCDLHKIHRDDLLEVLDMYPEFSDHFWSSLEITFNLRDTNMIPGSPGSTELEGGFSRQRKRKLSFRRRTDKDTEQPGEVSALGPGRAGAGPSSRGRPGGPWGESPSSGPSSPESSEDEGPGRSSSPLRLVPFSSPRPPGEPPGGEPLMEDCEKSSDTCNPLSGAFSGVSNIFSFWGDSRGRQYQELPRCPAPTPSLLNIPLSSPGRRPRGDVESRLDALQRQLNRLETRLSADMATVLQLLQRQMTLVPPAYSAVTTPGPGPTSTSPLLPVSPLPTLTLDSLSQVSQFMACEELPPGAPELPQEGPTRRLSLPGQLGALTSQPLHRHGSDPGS

Cytochrome P450 2C9 = Cytochrome P450 2C9 (Homo sapiens, UniProt P11712); assay: Inhibition of CYP2C9 in human liver microsomes using tolbutamide as substrate incubated for 10 mins in presence of NADPH by UHPLC-MS/MS analysis; assay type: ADME
Sequence of Cytochrome P450 2C9 (P11712 whole entry): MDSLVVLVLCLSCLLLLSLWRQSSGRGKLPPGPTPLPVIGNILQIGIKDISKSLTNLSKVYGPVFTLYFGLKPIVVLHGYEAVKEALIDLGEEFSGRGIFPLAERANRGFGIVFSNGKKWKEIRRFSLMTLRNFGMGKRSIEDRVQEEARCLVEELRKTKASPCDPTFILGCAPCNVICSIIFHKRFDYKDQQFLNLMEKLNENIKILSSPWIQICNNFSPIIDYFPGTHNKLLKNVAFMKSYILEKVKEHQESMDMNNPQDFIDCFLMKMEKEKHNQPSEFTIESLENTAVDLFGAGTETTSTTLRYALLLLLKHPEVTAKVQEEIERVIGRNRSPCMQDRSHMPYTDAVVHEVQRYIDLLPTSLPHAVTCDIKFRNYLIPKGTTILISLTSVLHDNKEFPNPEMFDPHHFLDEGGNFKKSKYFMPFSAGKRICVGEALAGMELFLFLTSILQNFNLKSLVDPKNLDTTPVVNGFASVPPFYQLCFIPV

[7] = Cmax in Beagle dog at 2 mg/kg, po measured up to 24 hrs; assay type: ADME, organism-based, Canis lupus familiaris; parameters: route oral, dose 2 mg/kg, time <=24; settings: in vivo
[8] = Half life in Sprague-Dawley rat at 3 mg/kg, po measured up to 24 hrs; assay type: ADME, organism-based; settings: in vivo
[9] = Oral bioavailability in Beagle dog at 2 mg/kg measured up to 24 hrs; assay type: ADME, organism-based, Canis lupus familiaris; settings: in vivo
[10] = Half life in human liver microsomes; assay type: ADME, Microsome
[11] = Oral bioavailability in Sprague-Dawley rat at 3 mg/kg measured up to 24 hrs; assay type: ADME, organism-based; settings: in vivo
[12] = AUC in Beagle dog at 2 mg/kg, po measured up to 24 hrs; assay type: ADME, organism-based, Canis lupus familiaris; parameters: route oral, dose 2 mg/kg, time <=24; settings: in vivo
[13] = Oral bioavailability in C57BL/6 mouse at 3 mg/kg measured up to 24 hrs; assay type: ADME, organism-based; settings: in vivo
Cytochrome P450 2C19 = Cytochrome P450 2C19 (Homo sapiens, UniProt P33261); assay: Inhibition of CYP2C19 in human liver microsomes using S-mephenytoin as substrate incubated for 10 mins in presence of NADPH by UHPLC-MS/MS analysis; assay type: ADME; settings: read-out: INH
Sequence of Cytochrome P450 2C19 (P33261 whole entry): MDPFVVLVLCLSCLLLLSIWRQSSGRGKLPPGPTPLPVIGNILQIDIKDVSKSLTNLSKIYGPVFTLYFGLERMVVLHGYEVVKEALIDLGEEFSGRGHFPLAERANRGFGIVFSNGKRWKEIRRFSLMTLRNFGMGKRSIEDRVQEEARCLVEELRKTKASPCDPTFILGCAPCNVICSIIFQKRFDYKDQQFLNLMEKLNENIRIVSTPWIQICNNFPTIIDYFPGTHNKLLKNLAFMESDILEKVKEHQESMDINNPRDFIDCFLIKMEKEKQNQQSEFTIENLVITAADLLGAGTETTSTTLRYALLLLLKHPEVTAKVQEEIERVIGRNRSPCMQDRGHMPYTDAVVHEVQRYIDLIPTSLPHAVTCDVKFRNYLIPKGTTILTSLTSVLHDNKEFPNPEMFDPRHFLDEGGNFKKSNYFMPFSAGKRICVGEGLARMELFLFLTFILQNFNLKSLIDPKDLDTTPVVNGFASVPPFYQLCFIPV

[14] = Cmax in C57BL/6 mouse at 3 mg/kg, po measured up to 24 hrs; assay type: ADME, organism-based; parameters: route oral, dose 3 mg/kg, time <=24; settings: in vivo
[15] = AUC in Sprague-Dawley rat at 3 mg/kg, po measured up to 24 hrs; assay type: ADME, organism-based; parameters: route oral, dose 3 mg/kg, time <=24; settings: in vivo
[16] = Protein binding in rat plasma by rapid equilibrium dialysis method; assay type: ADME, cell-free; settings: read-out: PPB (converted)
[17] = Half life in Beagle dog at 2 mg/kg, po measured up to 24 hrs; assay type: ADME, organism-based, Canis lupus familiaris; settings: in vivo
[18] = Cmax in Sprague-Dawley rat at 3 mg/kg, po measured up to 24 hrs; assay type: ADME, organism-based; parameters: route oral, dose 3 mg/kg, time <=24; settings: in vivo
[19] = AUC in C57BL/6 mouse at 3 mg/kg, po measured up to 24 hrs; assay type: ADME, organism-based; parameters: route oral, dose 3 mg/kg, time <=24; settings: in vivo
[20] = Half life in rat liver microsomes; assay type: ADME, Microsome
[21] = Toxicity in humanized PD-1 mouse xenografted with mouse MC38 cells assessed as effect on body weight at 100 mg/kg, po bid for 14 days in combination with PD-1 antibody at 3 mg/kg, ip qod for 8 days; assay type: organism-based; settings: in vivo, 336 h, time 14 day
[22] = target: Tryptophan 2,3-dioxygenase (Homo sapiens, UniProt P48775); assay: Inhibition of human TDO expressed in Escherichia coli Rosetta using tryptophan as substrate incubated for 1 hr by methylene blue based assay
Sequence of Tryptophan 2,3-dioxygenase (P48775 whole entry): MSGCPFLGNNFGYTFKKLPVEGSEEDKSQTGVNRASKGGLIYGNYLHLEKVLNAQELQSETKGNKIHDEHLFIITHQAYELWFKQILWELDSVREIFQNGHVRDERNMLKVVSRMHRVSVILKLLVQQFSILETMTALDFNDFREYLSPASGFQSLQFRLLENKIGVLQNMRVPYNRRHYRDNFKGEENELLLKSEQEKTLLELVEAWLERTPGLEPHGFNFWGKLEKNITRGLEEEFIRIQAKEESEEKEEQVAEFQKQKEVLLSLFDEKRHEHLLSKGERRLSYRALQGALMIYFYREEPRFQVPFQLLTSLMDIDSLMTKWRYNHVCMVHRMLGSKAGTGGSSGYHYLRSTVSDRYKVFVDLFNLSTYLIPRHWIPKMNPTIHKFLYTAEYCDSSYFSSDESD

Cytochrome P450 3A4 = Cytochrome P450 3A4 (Homo sapiens, UniProt P08684); assay: Inhibition of CYP3A4 in human liver microsomes using midazolam as substrate incubated for 10 mins in presence of NADPH by UHPLC-MS/MS analysis; assay type: ADME
Sequence of Cytochrome P450 3A4 (P08684 whole entry): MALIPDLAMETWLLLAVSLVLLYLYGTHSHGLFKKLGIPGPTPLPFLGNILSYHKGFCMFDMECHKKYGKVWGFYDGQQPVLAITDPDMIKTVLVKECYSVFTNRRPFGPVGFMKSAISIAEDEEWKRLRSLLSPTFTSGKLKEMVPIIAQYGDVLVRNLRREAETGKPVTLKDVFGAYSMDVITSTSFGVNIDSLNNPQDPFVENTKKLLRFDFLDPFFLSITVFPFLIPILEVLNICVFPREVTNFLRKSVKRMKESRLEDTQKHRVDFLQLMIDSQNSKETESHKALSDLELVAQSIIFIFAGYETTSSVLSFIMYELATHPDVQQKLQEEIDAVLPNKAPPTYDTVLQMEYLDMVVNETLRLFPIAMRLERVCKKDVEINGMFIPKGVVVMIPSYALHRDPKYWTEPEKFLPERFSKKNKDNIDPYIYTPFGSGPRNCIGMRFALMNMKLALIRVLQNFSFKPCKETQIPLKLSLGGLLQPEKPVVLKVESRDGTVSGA

[23] = Clearance in C57BL/6 mouse at 3 mg/kg, po measured up to 24 hrs; assay type: ADME, organism-based; settings: in vivo
[24] = Clearance in Beagle dog at 2 mg/kg, po measured up to 24 hrs; assay type: ADME, organism-based, Canis lupus familiaris; settings: in vivo
Cytochrome P450 1A2 = target: T1, Cytochrome P450 1A2 (Homo sapiens, UniProt P05177); assay: Inhibition of CYP1A2 in human liver microsomes using phenacetin as substrate incubated for 10 mins in presence of NADPH by UHPLC-MS/MS analysis; assay type: ADME
T1 sequence (P05177 whole entry): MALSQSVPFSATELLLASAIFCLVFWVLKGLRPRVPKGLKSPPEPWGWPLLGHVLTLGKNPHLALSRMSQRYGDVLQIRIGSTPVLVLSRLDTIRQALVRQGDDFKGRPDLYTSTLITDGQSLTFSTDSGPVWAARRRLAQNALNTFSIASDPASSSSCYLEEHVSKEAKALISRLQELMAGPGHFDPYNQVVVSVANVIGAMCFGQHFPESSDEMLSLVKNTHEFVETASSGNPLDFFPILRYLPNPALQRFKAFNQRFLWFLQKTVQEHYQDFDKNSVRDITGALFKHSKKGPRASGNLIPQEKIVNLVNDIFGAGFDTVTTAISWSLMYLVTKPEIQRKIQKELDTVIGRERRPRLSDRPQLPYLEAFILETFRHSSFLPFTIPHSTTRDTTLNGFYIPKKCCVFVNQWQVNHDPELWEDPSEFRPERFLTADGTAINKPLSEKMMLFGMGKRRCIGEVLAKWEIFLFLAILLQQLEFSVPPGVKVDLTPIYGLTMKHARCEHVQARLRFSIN

[25] = target: T2, Indoleamine 2,3-dioxygenase 1 (Homo sapiens, UniProt P14902); assay: Inhibition of human IDO1 expressed in Escherichia coli Rosetta using tryptophan as substrate incubated for 1 hr by methylene blue based assay
T2 sequence (P14902 whole entry): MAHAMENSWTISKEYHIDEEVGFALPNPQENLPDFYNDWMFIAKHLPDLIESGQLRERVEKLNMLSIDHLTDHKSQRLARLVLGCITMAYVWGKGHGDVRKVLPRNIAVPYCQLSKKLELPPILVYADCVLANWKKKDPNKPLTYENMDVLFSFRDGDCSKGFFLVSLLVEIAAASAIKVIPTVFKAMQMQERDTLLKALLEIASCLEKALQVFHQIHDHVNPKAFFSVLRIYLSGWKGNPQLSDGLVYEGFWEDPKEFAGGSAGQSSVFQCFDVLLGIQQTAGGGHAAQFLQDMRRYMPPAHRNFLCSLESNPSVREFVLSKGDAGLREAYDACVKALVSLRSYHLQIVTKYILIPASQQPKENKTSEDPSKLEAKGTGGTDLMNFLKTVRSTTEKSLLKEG

[26] = target: T2, Indoleamine 2,3-dioxygenase 1; assay: Inhibition of IDO1 in IFNgamma-stimulated human HeLa cells using L-tryptophan as substrate measured after 48 hrs
MC-38 [27] = assay: Antitumor activity against mouse MC38 cells xenograted in po dosed humanized PD-1 mouse assessed as tumor growth inhibition administered twice for 14 days in combination with PD-1 antibody at 3 mg/kg, ip qod for 8 days by digital caliper method; assay type: functional, organism-based; settings: time 14.0 day
[28] = Toxicity in humanized PD-1 mouse xenografted with mouse MC38 cells assessed as effect on body weight at 150 to 600 mg/kg, po bid for 14 days in combination with PD-1 antibody at 3 mg/kg, ip qod for 8 days; assay type: organism-based; settings: in vivo, 336 h, dose 150-600 mg/kg, time 14 day
MC-38 [29] = assay: Antitumor activity against mouse MC38 cells xenograted in humanized PD-1 mouse assessed as tumor growth inhibition at 300 mg/kg, po bid for 14 days in combination with PD-1 antibody at 3 mg/kg, ip qod for 8 days by digital caliper method relative to control; assay type: functional; settings: MC-38, 336 h, time 14 day, read-out: TGI
MC-38 [30] = assay: Antitumor activity against mouse MC38 cells xenograted in humanized PD-1 mouse assessed as tumor growth inhibition at 150 mg/kg, po bid for 14 days in combination with PD-1 antibody at 3 mg/kg, ip qod for 8 days by digital caliper method relative to control; assay type: functional; settings: MC-38, 336 h, time 14 day, read-out: TGI
MC-38 [31] = assay: Antitumor activity against mouse MC38 cells xenograted in humanized PD-1 mouse assessed as tumor growth inhibition at 600 mg/kg, po bid for 14 days in combination with PD-1 antibody at 3 mg/kg, ip qod for 8 days by digital caliper method relative to control; assay type: functional; settings: MC-38, 336 h, time 14 day, read-out: TGI
[32] = target: Indoleamine 2,3-dioxygenase 1 (Mus musculus) (UniProt P28776); assay: In vivo inhibition of IDO1 in C57BL/6 mouse assessed as reduction in kynurenine level in plasma at 300 mg/kg, po administered as single dose measured after 2 hrs relative to control; assay type: functional, organism-based
Sequence of Indoleamine 2,3-dioxygenase 1 (Mus musculus) (P28776 whole entry, looked up): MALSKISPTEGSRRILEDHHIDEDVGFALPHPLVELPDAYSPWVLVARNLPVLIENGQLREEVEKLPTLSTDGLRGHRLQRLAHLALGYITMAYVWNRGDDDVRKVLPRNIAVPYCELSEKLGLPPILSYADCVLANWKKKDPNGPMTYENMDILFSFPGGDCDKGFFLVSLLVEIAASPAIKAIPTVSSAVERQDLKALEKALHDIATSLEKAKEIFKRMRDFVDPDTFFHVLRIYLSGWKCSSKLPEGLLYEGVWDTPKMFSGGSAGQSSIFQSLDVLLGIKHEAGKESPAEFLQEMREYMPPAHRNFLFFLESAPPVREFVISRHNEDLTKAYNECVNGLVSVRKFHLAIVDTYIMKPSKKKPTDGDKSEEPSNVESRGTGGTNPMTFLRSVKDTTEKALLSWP

clearance [1]: 29 mL/min/kg
INH (Cytochrome P450 2D6): > 10 µM
fraction unbound [2]: 0.015
fraction unbound [4]: 0.025
half-life [5]: 2.41 h
INH (Cytochrome P450 2C9): > 10 µM
Cmax [7]: 245 ng/mL
half-life [8]: 2.73 h
bioavailability [9]: 50%
half-life [10]: 4.88 h
bioavailability [11]: 55%
AUC at 24 h [12]: 676 ng·h/mL
bioavailability [13]: 44%
IC50 (Cytochrome P450 2C19): > 10000 nM
Cmax [14]: 253 ng/mL
AUC at 24 h [15]: 807 ng·h/mL
fraction unbound [16]: 0.03
half-life [17]: 5.03 h
Cmax [18]: 133 ng/mL
AUC at 24 h [19]: 1020 ng·h/mL
half-life [20]: 1.22 h
IC50 [22]: > 100000 nM
INH (Cytochrome P450 3A4): > 10 µM
clearance [23]: 49.2 mL/min/kg
clearance [24]: 36.6 mL/min/kg
INH (Cytochrome P450 1A2): > 10 µM
SMILES: NS(=O)(=O)NCCNc1nonc1C(=NO)Nc1ccc(F)c(Br)c1 [EPACADOSTAT]
inhibition in vivo at 100 mg/kg (MC-38 [3]): 66.9%
INH [6]: > 30 µM
Activity [21]: Non-Toxic

IC50 [25]: 497 nM
IC50 [26]: 578 nM
IC50 [22]: > 100000 nM
SMILES: O/N=C(/CC1CCCCC1)Nc1ccc(F)c(Br)c1

IC50 [25]: 98 nM
IC50 [26]: 150 nM
IC50 [22]: 65700 nM
SMILES: O=C(/C(=N/O)Nc1ccc(F)c(Br)c1)C1CCN(S(=O)(=O)Nc2ccccc2)CC1

IC50 [25]: 80 nM
IC50 [26]: 204 nM
IC50 [22]: 81000 nM
SMILES: O=C(NC[C@H]1CC[C@H](C(=O)/C(=N/O)Nc2ccc(F)c(Br)c2)CC1)c1ccccc1

IC50 [25]: 40 nM
IC50 [26]: 54 nM
IC50 [22]: 58000 nM
SMILES: O=C(/C(=N/O)Nc1ccc(F)c(Br)c1)C1CCN(C(=O)Nc2ccccc2)CC1

The next lines start with the compound.

SMILES: O=C(Nc1ccccc1)[C@H]1CC[C@H](C(=O)/C(=N/O)Nc2ccc(F)c(Br)c2)CC1
IC50 [25]: 150 nM
IC50 [26]: 197 nM
IC50 [22]: > 100000 nM

SMILES: NS(=O)(=O)N1CCC(C(=O)/C(=N/O)Nc2ccc(F)c(Br)c2)CC1
clearance [1]: 16.7 mL/min/kg
INH (Cytochrome P450 2D6): > 10 µM
fraction unbound [2]: 0.036
fraction unbound [4]: 0.04
TGI (MC-38 [27]): Dose-dependent effect
half-life [5]: 1.21 h
IC50 [25]: 63 nM
INH [6]: > 30 µM
INH (Cytochrome P450 2C9): > 10 µM
Activity [28]: Non-Toxic
Cmax [7]: 742 ng/mL
half-life [8]: 6.14 h
inhibition in vivo at 300 mg/kg (MC-38 [29]): 71.7%
inhibition in vivo at 150 mg/kg (MC-38 [30]): 60.3%
IC50 [26]: 45 nM
bioavailability [9]: 102%
half-life [10]: 5.81 h
inhibition in vivo at 600 mg/kg (MC-38 [31]): 86.8%
bioavailability [11]: 58.8%
AUC at 24 h [12]: 3630 ng·h/mL
bioavailability [13]: 44%
inhibition [32]: 87.8%
IC50 (Cytochrome P450 2C19): > 10000 nM
Cmax [14]: 127 ng/mL
AUC at 24 h [15]: 1530 ng·h/mL
fraction unbound [16]: 0.076
half-life [17]: 3.04 h
Cmax [18]: 179 ng/mL
AUC at 24 h [19]: 358 ng·h/mL
half-life [20]: 1.56 h
IC50 [22]: 62500 nM
INH (Cytochrome P450 3A4): > 10 µM
clearance [23]: 61.2 mL/min/kg
clearance [24]: 9.3 mL/min/kg
INH (Cytochrome P450 1A2): > 10 µM

SMILES: O=C(/C(=N/O)Nc1ccc(F)c(Br)c1)C1CCN(c2ccccc2)CC1
IC50 [25]: 149 nM
IC50 [26]: 1020 nM
IC50 [22]: > 100000 nM

SMILES: O=C(/C(=N/O)Nc1ccc(F)c(Br)c1)c1ccco1
IC50 [25]: 467 nM
IC50 [26]: 1680 nM
IC50 [22]: > 100000 nM
